ChEMBL document CHEMBL1201862, “PubChem BioAssay data set” (2004)
Activity calls are given as the source filed them.

Columns and labels:
[1] = biological target: T1, Neuropeptide Y receptor type 2 (Homo sapiens, UniProt P49146); assay: Fluorescence-based cell-based high-throughput dose response assay for agonists of NPY-Y2. [Related pubchem assays: 1703 (Screening assay (CNGC inhibitors).), 1359 (Screening assay (NPY-Y2 potentiators or agonists).), 1304 (Screening assay (NPY-Y1 potentiators or agonists).), 1710 (Screening assay (NPY-Y2 agonists).), 1791 (Summary AID.)]; assay type: functional
T1 sequence (P49146 whole entry): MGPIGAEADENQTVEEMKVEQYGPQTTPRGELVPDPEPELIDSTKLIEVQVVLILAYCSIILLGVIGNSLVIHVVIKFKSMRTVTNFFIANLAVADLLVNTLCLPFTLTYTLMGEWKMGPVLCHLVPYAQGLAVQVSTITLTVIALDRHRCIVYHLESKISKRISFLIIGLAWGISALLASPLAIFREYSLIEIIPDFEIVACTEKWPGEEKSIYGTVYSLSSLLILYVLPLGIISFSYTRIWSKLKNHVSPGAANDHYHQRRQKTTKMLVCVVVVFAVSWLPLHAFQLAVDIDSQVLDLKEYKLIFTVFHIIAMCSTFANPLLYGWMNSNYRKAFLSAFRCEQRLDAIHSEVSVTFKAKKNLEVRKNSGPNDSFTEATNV

[2] = HEK293T cytotoxicity, dose response, cytotoxicity control for miR-122 modulator project, cell-based, activator set, cherry-pick (AID 720690); assay type: functional;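 further: HEK293T human cells scored for general mammalian cytotoxicity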
[3] = biological target: Nucleotide-binding oligomerization domain-containing protein 2 (Homo sapiens, UniProt Q9HC29); assay: NOD2 signaling inhibitors, cell-based, luminescence, uHTS, HEK293 (AID 1566); assay type: functional
Nucleotide-binding oligomerization domain-containing protein 2, sequence (Q9HC29 whole entry, the tested form may be a part): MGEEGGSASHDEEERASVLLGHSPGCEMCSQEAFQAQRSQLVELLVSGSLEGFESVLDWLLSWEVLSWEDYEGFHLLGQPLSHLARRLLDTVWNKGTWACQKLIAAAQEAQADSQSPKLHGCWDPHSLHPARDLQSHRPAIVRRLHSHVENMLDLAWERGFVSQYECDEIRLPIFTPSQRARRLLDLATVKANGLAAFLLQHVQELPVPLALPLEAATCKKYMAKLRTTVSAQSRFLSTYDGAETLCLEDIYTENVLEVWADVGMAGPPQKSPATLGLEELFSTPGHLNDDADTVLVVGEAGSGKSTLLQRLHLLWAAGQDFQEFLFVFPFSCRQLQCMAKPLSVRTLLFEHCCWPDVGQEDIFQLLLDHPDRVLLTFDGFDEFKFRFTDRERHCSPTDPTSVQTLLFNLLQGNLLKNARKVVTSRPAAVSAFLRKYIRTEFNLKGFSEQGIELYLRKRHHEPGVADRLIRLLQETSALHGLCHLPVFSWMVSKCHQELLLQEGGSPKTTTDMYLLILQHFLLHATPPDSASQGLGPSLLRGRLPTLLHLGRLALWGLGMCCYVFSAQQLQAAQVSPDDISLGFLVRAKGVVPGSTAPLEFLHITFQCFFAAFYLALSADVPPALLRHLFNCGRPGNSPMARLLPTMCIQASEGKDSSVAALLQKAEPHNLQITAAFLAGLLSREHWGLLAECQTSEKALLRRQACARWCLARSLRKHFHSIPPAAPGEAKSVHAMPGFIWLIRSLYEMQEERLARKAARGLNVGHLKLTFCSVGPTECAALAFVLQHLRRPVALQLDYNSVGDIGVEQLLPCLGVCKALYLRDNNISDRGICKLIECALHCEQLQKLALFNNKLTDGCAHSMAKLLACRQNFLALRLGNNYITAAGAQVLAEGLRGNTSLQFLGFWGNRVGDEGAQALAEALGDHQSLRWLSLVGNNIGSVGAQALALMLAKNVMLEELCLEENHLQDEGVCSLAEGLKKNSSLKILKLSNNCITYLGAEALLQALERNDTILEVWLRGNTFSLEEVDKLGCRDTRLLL

[4] = Luminescence Cell-Based/Microorganism Confirmation at Dose of Inhibitors of Trypanosoma cruzi Infection. [Related pubchem assays: 1885, 1968 ]; assay type: functional
[5] = inhibitors of Trypanosoma cruzi host-cell infection, confirmation, beta-gal luminescence, NIH3T3 host cells (AID 2630); assay type: functional, cell-based; details: Mus musculus
[6] = BHK-21 cell cytotoxicity, cytotoxicity control for flavivirus guanylyltransferase probe project, secondary screen (AID 624078); assay type: functional
Hexokinase HKDC1 = biological target: T2, Hexokinase HKDC1 (Homo sapiens, UniProt Q2TB90); assay: HKDC1 hexokinase activators, dose response, biochemical, W721R variant (AID 504730); assay type: functional
T2 sequence (Q2TB90 whole entry): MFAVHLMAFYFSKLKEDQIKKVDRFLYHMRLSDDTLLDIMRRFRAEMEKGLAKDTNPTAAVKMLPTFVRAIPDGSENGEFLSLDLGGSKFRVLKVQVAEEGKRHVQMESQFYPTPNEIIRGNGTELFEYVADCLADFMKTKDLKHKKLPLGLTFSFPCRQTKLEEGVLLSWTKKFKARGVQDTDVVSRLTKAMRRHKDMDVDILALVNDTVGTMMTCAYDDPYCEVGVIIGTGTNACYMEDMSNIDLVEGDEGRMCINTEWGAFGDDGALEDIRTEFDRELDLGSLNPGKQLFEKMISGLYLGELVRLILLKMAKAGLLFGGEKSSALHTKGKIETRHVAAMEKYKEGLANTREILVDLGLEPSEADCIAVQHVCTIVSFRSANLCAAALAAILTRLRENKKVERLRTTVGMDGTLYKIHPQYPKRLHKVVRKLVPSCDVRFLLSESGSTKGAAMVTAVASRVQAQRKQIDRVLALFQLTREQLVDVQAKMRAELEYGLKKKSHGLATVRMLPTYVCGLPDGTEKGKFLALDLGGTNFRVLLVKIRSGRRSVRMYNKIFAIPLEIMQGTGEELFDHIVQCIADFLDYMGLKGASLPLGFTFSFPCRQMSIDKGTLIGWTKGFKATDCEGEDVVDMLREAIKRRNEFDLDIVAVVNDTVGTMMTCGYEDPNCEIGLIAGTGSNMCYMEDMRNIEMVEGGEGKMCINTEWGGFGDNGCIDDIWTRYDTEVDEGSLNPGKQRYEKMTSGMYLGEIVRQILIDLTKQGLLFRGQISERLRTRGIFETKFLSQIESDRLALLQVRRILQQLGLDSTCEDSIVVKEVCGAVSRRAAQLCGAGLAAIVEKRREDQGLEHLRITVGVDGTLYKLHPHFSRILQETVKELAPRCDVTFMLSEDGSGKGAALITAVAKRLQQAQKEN

Beta-galactosidase = Beta-galactosidase (Escherichia coli, UniProt Q8VNN2); assay: beta-galactosidase enzyme inhibitors and activators, dose response, artefact control for CCR6 antagonist project, biochemical, E. coli enzyme, set 3 (AID 504712); assay type: functional
Beta-galactosidase, sequence (Q8VNN2 whole entry): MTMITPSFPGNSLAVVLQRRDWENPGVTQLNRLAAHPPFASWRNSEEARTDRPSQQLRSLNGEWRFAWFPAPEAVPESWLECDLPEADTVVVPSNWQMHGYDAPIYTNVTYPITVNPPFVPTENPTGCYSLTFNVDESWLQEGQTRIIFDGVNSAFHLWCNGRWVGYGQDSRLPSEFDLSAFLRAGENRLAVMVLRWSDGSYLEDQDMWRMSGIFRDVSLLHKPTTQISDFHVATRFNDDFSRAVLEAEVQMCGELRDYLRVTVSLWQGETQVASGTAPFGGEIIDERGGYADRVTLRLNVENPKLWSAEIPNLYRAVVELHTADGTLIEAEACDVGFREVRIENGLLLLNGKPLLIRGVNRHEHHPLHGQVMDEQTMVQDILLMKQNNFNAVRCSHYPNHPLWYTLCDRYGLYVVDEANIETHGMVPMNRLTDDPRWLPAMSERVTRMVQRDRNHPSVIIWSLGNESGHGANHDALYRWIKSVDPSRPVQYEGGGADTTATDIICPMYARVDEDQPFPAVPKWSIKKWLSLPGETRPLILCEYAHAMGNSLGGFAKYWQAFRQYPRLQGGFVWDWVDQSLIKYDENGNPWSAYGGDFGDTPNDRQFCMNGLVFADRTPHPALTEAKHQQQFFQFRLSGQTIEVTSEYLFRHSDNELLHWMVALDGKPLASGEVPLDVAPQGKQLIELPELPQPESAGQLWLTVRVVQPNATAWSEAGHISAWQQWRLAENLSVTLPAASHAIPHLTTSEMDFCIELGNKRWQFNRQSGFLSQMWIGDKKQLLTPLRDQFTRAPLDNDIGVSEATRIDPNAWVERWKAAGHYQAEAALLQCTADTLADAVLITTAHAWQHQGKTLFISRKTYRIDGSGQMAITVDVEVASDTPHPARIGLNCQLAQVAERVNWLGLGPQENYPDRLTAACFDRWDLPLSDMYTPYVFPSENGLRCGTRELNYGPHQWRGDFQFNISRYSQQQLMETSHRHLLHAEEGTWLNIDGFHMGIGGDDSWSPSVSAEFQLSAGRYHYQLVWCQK

[7] = biological target: T3, Heat shock factor protein 1 (Mus musculus, UniProt P38532); assay: inhibition of MG132-induced HSE-luciferase signal, confirmation, cell-based, NIH3T3, luminescence, dose retest (AID 2382); assay type: functional;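 further: NIH3T3 fibroblasts with HSF1-driven luciferase reporter stressed by proteasome inhibitor MG132; luminescence from HSF1-driven luciferase expression after 8 hours of MG132 stress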
T3 sequence (P38532 whole entry): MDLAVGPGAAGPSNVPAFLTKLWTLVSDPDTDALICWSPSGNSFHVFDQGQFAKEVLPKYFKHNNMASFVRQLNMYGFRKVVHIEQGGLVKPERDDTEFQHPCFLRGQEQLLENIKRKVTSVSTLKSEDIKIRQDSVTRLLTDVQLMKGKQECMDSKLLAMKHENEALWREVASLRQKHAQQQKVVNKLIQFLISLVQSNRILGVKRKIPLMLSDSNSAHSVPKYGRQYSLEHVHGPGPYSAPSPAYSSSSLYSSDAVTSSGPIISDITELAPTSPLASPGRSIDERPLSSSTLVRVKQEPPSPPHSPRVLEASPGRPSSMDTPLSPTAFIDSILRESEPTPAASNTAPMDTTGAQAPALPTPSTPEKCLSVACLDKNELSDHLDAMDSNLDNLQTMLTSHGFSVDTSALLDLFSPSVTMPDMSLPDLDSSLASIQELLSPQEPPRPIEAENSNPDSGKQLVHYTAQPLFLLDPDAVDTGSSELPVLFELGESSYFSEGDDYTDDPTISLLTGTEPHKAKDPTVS

Fatty acid synthase = Fatty acid synthase (Homo sapiens, UniProt P49327); assay: FAS thioesterase domain inhibitors, dose response, biochemical, kinetic fluorescence intensity (AID 624326); assay type: functional;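 further: rate of fluorescence rise from hydrolysis of a fluorogenic O-methyl fluorescein ester substrate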
Fatty acid synthase, sequence (P49327 whole entry, the tested form may be a part): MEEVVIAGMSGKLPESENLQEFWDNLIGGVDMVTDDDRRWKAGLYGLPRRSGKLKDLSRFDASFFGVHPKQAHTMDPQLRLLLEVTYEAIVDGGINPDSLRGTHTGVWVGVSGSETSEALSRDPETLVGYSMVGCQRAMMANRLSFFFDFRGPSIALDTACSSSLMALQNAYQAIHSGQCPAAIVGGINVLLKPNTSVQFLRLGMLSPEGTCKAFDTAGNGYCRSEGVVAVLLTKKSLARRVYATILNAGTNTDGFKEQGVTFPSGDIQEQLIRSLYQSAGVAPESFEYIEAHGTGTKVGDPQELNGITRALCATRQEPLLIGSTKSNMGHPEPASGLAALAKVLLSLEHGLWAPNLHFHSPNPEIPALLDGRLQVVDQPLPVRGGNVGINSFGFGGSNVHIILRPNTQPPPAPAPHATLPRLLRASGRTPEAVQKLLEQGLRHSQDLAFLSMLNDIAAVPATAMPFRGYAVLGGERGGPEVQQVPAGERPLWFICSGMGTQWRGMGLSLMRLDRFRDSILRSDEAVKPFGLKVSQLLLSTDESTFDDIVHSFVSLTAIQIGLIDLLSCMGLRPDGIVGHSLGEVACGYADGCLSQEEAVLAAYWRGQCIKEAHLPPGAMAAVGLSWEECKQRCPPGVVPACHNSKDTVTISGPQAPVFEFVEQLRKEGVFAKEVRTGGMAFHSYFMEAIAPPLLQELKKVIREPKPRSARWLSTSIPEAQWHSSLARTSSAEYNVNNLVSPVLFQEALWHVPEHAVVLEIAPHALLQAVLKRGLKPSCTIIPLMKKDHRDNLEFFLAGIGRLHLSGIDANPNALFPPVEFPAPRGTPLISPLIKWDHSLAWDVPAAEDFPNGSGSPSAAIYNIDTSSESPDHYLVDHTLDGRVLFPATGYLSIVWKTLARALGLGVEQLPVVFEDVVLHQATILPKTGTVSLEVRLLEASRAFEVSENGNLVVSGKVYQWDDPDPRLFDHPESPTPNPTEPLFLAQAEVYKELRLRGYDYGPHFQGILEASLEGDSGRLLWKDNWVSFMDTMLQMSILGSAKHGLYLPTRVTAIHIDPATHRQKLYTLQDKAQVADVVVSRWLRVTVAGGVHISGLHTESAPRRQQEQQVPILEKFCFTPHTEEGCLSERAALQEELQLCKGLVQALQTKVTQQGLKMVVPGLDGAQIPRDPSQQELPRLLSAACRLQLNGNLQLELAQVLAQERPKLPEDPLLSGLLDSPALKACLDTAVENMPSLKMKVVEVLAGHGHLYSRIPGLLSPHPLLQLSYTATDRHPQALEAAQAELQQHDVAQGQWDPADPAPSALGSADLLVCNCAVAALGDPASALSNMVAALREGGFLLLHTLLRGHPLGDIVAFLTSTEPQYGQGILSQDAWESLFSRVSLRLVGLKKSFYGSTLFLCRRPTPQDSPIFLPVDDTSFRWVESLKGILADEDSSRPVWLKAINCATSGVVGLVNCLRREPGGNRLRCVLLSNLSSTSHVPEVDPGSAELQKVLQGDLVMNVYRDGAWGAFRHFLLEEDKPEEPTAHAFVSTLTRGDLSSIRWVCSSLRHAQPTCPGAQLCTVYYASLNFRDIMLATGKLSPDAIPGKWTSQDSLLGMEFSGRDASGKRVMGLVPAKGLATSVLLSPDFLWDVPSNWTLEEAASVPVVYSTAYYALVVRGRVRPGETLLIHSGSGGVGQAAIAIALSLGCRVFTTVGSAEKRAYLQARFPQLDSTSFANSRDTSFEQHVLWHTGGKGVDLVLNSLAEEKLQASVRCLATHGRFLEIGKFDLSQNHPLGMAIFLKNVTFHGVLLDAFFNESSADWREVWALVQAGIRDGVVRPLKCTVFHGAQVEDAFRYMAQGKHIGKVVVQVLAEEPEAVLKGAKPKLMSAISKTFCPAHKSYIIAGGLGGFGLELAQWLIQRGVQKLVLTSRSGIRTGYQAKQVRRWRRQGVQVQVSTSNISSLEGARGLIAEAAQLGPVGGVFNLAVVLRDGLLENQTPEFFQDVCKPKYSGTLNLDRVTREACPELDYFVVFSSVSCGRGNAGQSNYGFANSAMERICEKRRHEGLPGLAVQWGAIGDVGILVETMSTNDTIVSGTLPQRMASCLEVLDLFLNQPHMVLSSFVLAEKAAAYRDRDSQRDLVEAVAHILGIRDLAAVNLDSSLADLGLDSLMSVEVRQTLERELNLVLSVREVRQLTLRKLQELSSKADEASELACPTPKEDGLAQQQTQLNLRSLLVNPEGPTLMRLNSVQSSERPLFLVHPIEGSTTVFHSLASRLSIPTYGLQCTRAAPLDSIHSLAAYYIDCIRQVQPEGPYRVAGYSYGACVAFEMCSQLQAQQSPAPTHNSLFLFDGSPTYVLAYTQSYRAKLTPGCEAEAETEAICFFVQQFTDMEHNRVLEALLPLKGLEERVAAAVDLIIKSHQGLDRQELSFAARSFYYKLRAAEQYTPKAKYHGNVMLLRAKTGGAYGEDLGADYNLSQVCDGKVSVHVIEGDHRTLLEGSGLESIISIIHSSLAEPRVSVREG

[8] = HeLa cell cytotoxicity, dose response, cytotoxicity control for MgcRacGAP inhibitor project (AID 624300); assay type: functional

With `O=C(CC(O)(C(F)(F)F)C(F)(F)F)Nc1ccc(Cl)c(Cl)c1` the EC50 [1] was 21.7 µM (not active) and the AC50 [2] was 2.27 µM (active).
In the case of `O=C(CNc1cccc2ccccc12)N/N=C/c1ccc([N+](=O)[O-])o1`, the EC50 [3] is reported as 5.55 µM (active), the EC50 [4] is reported as 0.022 µM (active) and the EC50 (cells) is reported as 0.064 µM (active). For the same compound, the EC50 [5] was 0.022 µM (active).
For `O=C(O)CSc1cc(NS(=O)(=O)c2ccc(Br)cc2)c2ccccc2c1O`, the CC50 [6] was 7.81 µM (active).
For `O=C1NC(=S)N/C1=C/c1cc2c(cc1[N+](=O)[O-])OCO2`, the EC50 (Hexokinase HKDC1) was > 80 µM (inactive).
With `Cc1ccc(NC(=O)C2=C(c3ccccc3)S(=O)(=O)CCS2(=O)=O)cc1` the IC50 (Beta-galactosidase) was > 66.6 µM (inactive), the EC50 [7] was 6.3 µM (active) and the IC50 (Fatty acid synthase) was 1.61 µM (active). For the same compound, the CC50 [8] was 100 µM (active).
